Starred links: 1 amine or outer side, 2 acyl side, 3 side chain; linkers in the order of their positions; H or OH if unused. Positions of bridges follow the written chain, without caps; N, C: chain ends. Non-standard residues stand in square brackets, D forms with d. Residues, ends and D or L forms follow the SMILES beside them. *: point of attachment. Orn(4R-OH,5R-OCH2CH2NMe3+) = C[N+](C)(C)CCO[C@@H](N[*:3])[C@H](O)C[C@H](N[*:1])C(=O)[*:2]; pTerphenylCO(4''-OnC5H11) = CCCCCOc1ccc(-c2ccc(-c3ccc(C(=O)*)cc3)cc2)cc1; hTyr(3S-OH,4S-OH) = N[C@H](C(=O)O)[C@H](O)[C@@H](O)c1ccc(O)cc1; Pro(3S-OH,4S-Me) = C[C@H]1CN[C@H](C(=O)O)[C@H]1O; Hyp = O=C(O)[C@@H]1C[C@@H](O)CN1
Tests used:
[1] = Previous toxicology studies by the IV route; format: in vivo, cynomolgus monkey
Experimental: Previous toxicology studies by the IV route of administration conducted in cynomolgus monkeys have shown CD101 to be safe and well tolerated at up to at least 30 mg/kg, which generates very high systemic exposures upon initial infusion of CD101 into the bloodstream. Therefore, only local tolerability (and PK) of CD101 by SC administration required evaluation. […] Plasma concentrations were then quantified by liquid chromatography with tandem mass spectrometric detection (LC-MS/MS). Bioavailability from SC dosing was calculated by comparing the calculated area under the concentration-time profile (AUC) from SC against the AUC from IV administration of the same dose.

[2] = tested on: C. albicans SC-5314 biofilms; assay: Time lapse microscopy of biofilm formation; format: cell-based, Candida albicans; settings: CD101 0.25 μg/ml; 0 h up to 16 h
Text: The effective CD101 concentration obtained from the above experiments was used to monitor its effect on biofilm formation in real time using TLM, which involves capturing real-time images of a single frame at specific time intervals, allowing temporal monitoring of the interactions occurring between the drug and Candida biofilms. Captured images were combined in a time sequence, resulting in an animation depicting the sequence of events that occurred with the passage of time. Briefly, the discs with C. albicans (adhered for 90 min as above) were placed in a 35-mm-diameter glass-bottom Petri dish (MatTek Corp., Ashland, Mass.). […] Phase contrast images for this interaction were captured immediately from 0 h and followed up to 16-17 h on a Leica DMI 6000 B inverted microscope connected to a Retiga EXi Aqua camera (Q-imaging Vancouver British Columbia). To determine the structural changes in the maturing biofilm, both acquisition and analysis of a series of horizontal (xy) optical sections of the biofilm was done using Metamorph Imaging software (Molecular Devices, Downington, Pa.). Disc incubated with media alone was used as control.

[3] = Pharmacokinetic profile in mice following a 10-mg/kg subcutaneous dose; format: in vivo; settings: mouse, plasma, sc
C. parapsilosis [4] = assay: In vitro susceptibility testing (CLSI M27-A3), C. parapsilosis; format: cell-based, Candida parapsilosis; settings: Lodderomyces parapsilosis, 24 h
Experimental: Ten clinical Candida strains were used for the in vivo treatment studies, including four C. albicans, three C. glabrata, and three C. parapsilosis strains (Table 15). This group was selected to encompass phenotypic variability in susceptibility to triazoles and echinocandins and based on similar fitness in the animal model as defined by the amount of growth in control animals over 24 h. The organisms were maintained, grown, and quantified on Sabouraud's dextrose agar (SDA) plates.
In vitro susceptibility testing. All isolates were tested in accordance with the standards in CLSI document M27-A3. The MICs were determined visually after 24 h of incubation as the lowest concentration of drug that causes a significant diminution (50%) of growth compared to controls. MICs were determined on three separate occasions in duplicate.

[5] = In vivo tissue distribution in SD rats after 5 mg/kg IV; settings: Sprague-Dawley, rat
Experimental: The in vitro activity of CD101 was evaluated against 153 A. fumigatus clinical isolates collected as part of the 2014 and 2015 JMI international SENTRY surveillance program. Susceptibility was determined by measuring the minimal effective concentration (MEC) values in accordance with CLSI broth microdilution guidelines (M38-A2). In vivo tissue distribution of CD101 in SD rats (N=3/time up to 5 d) after a 5 mg/kg IV CD101 dose. Plasma/tissue concentrations were measured by LC-MS/MS.

aspergillosis = assay: Human subject with aspergillosis, single oral dose (Example 4); format: in vivo; settings: single dose of 50 mg-1200 mg acetate salt of CD101, oral formulation
Experimental: A human subject is diagnosed with aspergillosis using standard diagnostic procedures. The subject receives treatment with a single dose of 50 mg-1200 mg (e.g., 75±25 mg, 100±25 mg, 150±50 mg, 200±50 mg, 250±50 mg, 300±50 mg, 350±50 mg, 400±50 mg, 450±50 mg, 500±100 mg, 600±100 mg, 700±100 mg, 800±100 mg, 900±50 mg, 1000 mg±100 mg, or 1100±100 mg) of the acetate salt of CD101 administered in an oral formulation (e.g., in a pill, capsule, or liquid formulation). No other antifungal treatment is provided to the subject within one to three weeks before or after administration of the single dose CD101 treatment.

C. parapsilosis [6] = assay: Neutropenic murine disseminated candidiasis model, PK/PD targets, C. parapsilosis

CCCCCOc1ccc(-c2ccc(-c3ccc(C(=O)N[C@H]4C[C@@H](O)[C@@H](OCC[N+](C)(C)C)NC(=O)[C@@H]5[C@@H](O)[C@@H](C)CN5C(=O)[C@H]([C@@H](C)O)NC(=O)[C@H]([C@H](O)[C@@H](O)c5ccc(O)cc5)NC(=O)[C@@H]5C[C@@H](O)CN5C(=O)[C@H]([C@@H](C)O)NC4=O)cc3)cc2)cc1 [CD101] ({pTerphenylCO(4''-OnC5H11)}-[Orn(4R-OH,5R-OCH2CH2NMe3+)]T[Hyp][hTyr(3S-OH,4S-OH)]T[Pro(3S-OH,4S-Me)]; lactam 1-C)
dose safe and well tolerated [1]: at least 30 mg/kg
biofilm formation in real time [2]: only adhered cells with stunted growth, which failed to grow into mature biofilms
half-life [3]: ~25 h
bioavailability ([3]; read-out: absolute bioavailability): ~50%
MIC (C. parapsilosis [4]; C. parapsilosis 20423.072): 0.5 µg/mL
MIC (C. parapsilosis [4]; C. parapsilosis 20477.048): 1 µg/mL
MIC (C. parapsilosis [4]; C. parapsilosis 20519.069): 1 µg/mL
Kp ([5]; liver, kidney, lung, spleen, read-out: tissue/plasma exposure ratios): ~4
half-life ([5]; plasma, read-out: t1/2 in plasma (converted)): 39 h
half-life ([5]; tissues (all tissues studied), read-out: t1/2 in all tissues studied): 40 to 77 h
aspergillosis infection at follow-up visit (aspergillosis): confirmed to be resolved
median stasis 24 h free drug AUC/MIC target (C. parapsilosis [6]; C. parapsilosis): 2.61
Stasis 24 h Ave free drug AUC/MIC (C. parapsilosis [6]; C. parapsilosis 20423.072): 1.39
Stasis free drug AUC0-168h/MIC (C. parapsilosis [6]; C. parapsilosis 20423.072): 9.74
Stasis total drug AUC0-168h/MIC (C. parapsilosis [6]; C. parapsilosis 20423.072): 1217.49
Static dose (C. parapsilosis [6]; C. parapsilosis 20423.072): 9.62 mg/kg
Stasis 24 h Ave free drug AUC/MIC (C. parapsilosis [6]; C. parapsilosis 20477.048): 3.82
Stasis free drug AUC0-168h/MIC (C. parapsilosis [6]; C. parapsilosis 20477.048): 26.72
Stasis total drug AUC0-168h/MIC (C. parapsilosis [6]; C. parapsilosis 20477.048): 3339.42
Static dose (C. parapsilosis [6]; C. parapsilosis 20477.048): 52.96 mg/kg
median stasis free drug AUC0-168/MIC target (C. parapsilosis [6]; C. parapsilosis (only two strains achieved the endpoint)): 18.2
